# Key:
# 5-HT2A receptors = experiment: 5-HT2A receptor binding (3H-ketanserin autoradiography) in prefrontal cortex after chronic PCP; type: in vivo, rat; conditions: chronic PCP treatment
# Excerpt: In order to further validate this chronic PCP model, the effects of this treatment paradigm on 5-HT2A receptors within the prefrontal cortex was investigated. Chronic PCP treatment produced a significant decrease in 5-HT2A receptors in layer II & III (controls 158±6, PCP 139±4 fmolmg^−1) and layers V & VI (controls 82±4, PCP 69±3 fmolmg^−1). This is entirely consistent with post mortem studies of 5-HT2A receptor binding from schizophrenic patents (Laurelle, M. et al).
# 5-HT2A receptor binding: Sections from the level of the prefrontal cortex were preincubated for two consecutive washes at room temperature in 50mM Tris HCl buffer pH 7.4 to remove endogenous ligand. Total binding was defined using 0.71 nM (Wolkin, A. et al) ^3H-ketanserin in the presence of 1μM prazozin and 1μM tetrabenazine (to block non 5-HT2A binding). Non-specific binding was defined using 50nM spiperone. Sections were incubated with the appropriate ligand solution for 1 hour at room temperature then washed twice for 10 minutes in ice cold buffer before being rinsed in ice cold water and rapidly air dried. The sections were then exposed to film (Biomax MR, Kodak) with previously calibrated (Wolkin, A. et al) ^3H-standards.
# Autoradiograms were analysed using MCID densitometry system. Results were statistically analysed using a one-way ANOVA followed by a student Newman-Keuls post hoc test.
# parvalbumin mRNA = experiment: Parvalbumin mRNA in situ hybridisation in chronic PCP model; type: in vivo, rat; conditions: chronic PCP treatment, alone or with clozapine or haloperidol
# Experimental: In order to validate further this chronic PCP model the effect of this treatment paradigm on parvalbumin mRNA expression was investigated.
# In situ hybridisation: a 45mer oligonucleotide probe was designed against bases 223-267 of the rat parvalbumin gene (GenBank accession number A819345). In situ hybridisation was carried out according to the method of Wisden and Morris (1994).
# [1] = test system: UNC5H1 (a netrin receptor); experiment: Rat Atlas Array, prefrontal cortex, chronic PCP model; type: in vivo
# Experimental: Rats were injected with PCP (2.58 mg/kg) or vehicle i.p. for 5 days according to the YRING PCP model. […] On the same day, the rats began a course of i.p. injections every 2.5 days with either PCP (2.58 mg/kg) or vehicle.
# 21 days after minipump implantation, animals were killed by cervical dislocation and the prefrontal cortex dissected and stored at −70° C. RNA was then prepared according to the protocol below and the corresponding cDNA synthesis and hybridisation procedure were conducted using the rat Atlas Array kit according to the manufacturer's instructions (Clontech).
# Results are expressed as mean relative optical densities ±SEM. Statistical significance was defined as P<0.05. N=¾ per group.
# Frozen tissue already resides in the ribolyser tubes from the dissection procedure • 1) Add 1.1 ml Qiagen lysis buffer (containing β-mercaptoethanol, final volume =3%). • 2) Perform 3×20 sec homogenisations at 6.5 g in a ribolyser. • 3) Spin 3 min in microfuge. • 4) Decant to fresh tube and re-spin 3 min. • 5) Decide at this stage if you want to dilute supernatant with more lysis buffer. • 6) Add equal volume of phenol/CHCl3 pH4.7, vortex 30 sec and leave on ice for 10 min. • 7) Re-vortex and spin 4° C. 5-10 min at 1500 g. • 8) Decant supernatant and add 100 μl H2O. Add an equal volume of phenol/CHCl3 pH4.7, vortex, spin 5-10 min at 1500 g. • 9) Decant supernatant and add 100 μl H2O. […]
# CIRL2 variant AB mRNA = experiment: Semi-quantitative RT-PCR, prefrontal cortex, chronic PCP and antipsychotic treatment; type: in vivo, rat; conditions: chronic PCP treatment
# Experimental: FIG. 15 illustrates the level of CIRL2 variant AB mRNA present in the prefrontal cortex of rat brain following chronic PCP and antipsychotic treatment (n=12 for all groups apart from veh-veh where n=11). […] and […] (SEQ ID NOS: 27-28) were the primer sequences used to amplify this product.
# (§1) RT-PCR for specific isoforms of CIRL was then conducted in the prefrontal cortex.
# (§2) 1 ml of lysis buffer (Qiagen), including 1% β-mercaptoethanol, was added to approximately 50-100 mg of brain tissue. Tissue samples were homogenised using a ribolyser (Hybaid) with 3 bursts at 6.5 g lasting 20 seconds each. Samples were then spun at room temperature in a microfuge for 3 minutes. The supernatant was removed and re-spun for a further 3 minutes. The supernatant was decanted to a fresh tube to which an equal volume of 70% ethanol was added. The remaining RNA isolation procedure was carried out according to the manufacturer's protocol (Qiagen).
# (§3) Synthesis of cDNA was carried out according to manufacturers protocols (Life Technologies). Briefly 3-5μg of total RNA was reverse transcribed using oligo dT priming. After cDNA synthesis, samples were aliquoted and stored at −70° C. […]
# (§4) Alterations in expression levels were determined by semi-quantitative PCR. […] Samples were removed over 4 consecutive cycles, however, the first cycle to be removed sometimes varied depending on when logarithmic amplification was detected. […]
# CIRL3 variant AA mRNA = experiment: as above; type: in vivo, rat; conditions: chronic PCP treatment
# Experimental: FIG. 16 illustrates the level of CIRL3 variant AA mRNA present in the prefrontal cortex of rat brain following chronic PCP and antipsychotic treatment (n=12 for all groups apart from veh-veh where n=11) […] and […] (SEQ ID NOS: 29-30) were the primer sequences used to amplify this product.
# as §1, §2, §3, §4
# TNFα mRNA = experiment: RT-PCR for TNFα mRNA in rat prefrontal cortex; type: in vivo; conditions: acute PCP, single i.p. injection 2 mg/kg, 2 hrs and 24 hrs
# Experimental: Four groups of rats were treated with (a) chronic PCP, (b) chronic vehicle (control), (c) chronic PCP plus chronic clozapine (as above) or (d) chronic PCP plus chronic haloperidol (as above). The tissue was processed for RNA extraction and RT-PCP as described above, using primers specific for TNFα mRNA.
compound,measurement,setting,value
"c1ccc(C2(N3CCCCC3)CCCCC2)cc1 [PCP, phencyclidine]","5-HT2A receptors, prefrontal cortex layer II & III",5-HT2A receptors,139±4 fmolmg^−1
same,"5-HT2A receptors, prefrontal cortex layers V & VI",5-HT2A receptors,69±3 fmolmg^−1
same,"parvalbumin mRNA, prelimbic region of the prefrontal cortex",parvalbumin mRNA,0.0536±0.0023 relative optical density (ROD)
same,"parvalbumin mRNA, ventral reticular nucleus of the thalamus",parvalbumin mRNA,0.5032±0.0194 ROD
same,UNC5H1 expression (Atlas Array),[1],3936 ± 472 relative optical densities
same,expression of CIRL2 (AB) (RT-PCR),CIRL2 variant AB mRNA,reduced
same,expression of CIRL3 (AA) (RT-PCR),CIRL3 variant AA mRNA,reduced
same,levels of TNFα in rat prefrontal cortex,TNFα mRNA,reduced
